Assay results: ChEMBL document CHEMBL1128734, “Pyrrolo[1,2-a]benzimidazole-based quinones and iminoquinones. The role of the 3-substituent on cytotoxicity” (J Med Chem, 1995)

System: not listed separately
Experiment: Ratio of the LC50 value to that of PBI-A.
Format: functional

Point of comparison: `CCC(=O)OC1CCn2c1nc1c2C(=O)C(C)=C(N2CC2)C1=O` (configuration not stated), Ratio 0.72. Against it:
- CC1=C(N2CC2)C(=O)c2nc3n(c2C1=O)CCC3 — lower, 0.71
- CC1=C(N2CC2)C(=O)c2nc3n(c2C1=O)CCC3OC(N)=O (configuration not stated) — higher, 0.84
- CC(=O)OC1CCn2c1nc1c2C(=O)C(C)=C(N2CC2)C1=O (configuration not stated) — higher, 1

System: not listed separately
Experiment: COMPARE correlation coefficient of the LC50 response pattern with that of APBI-A.

Point of comparison: `CC(=O)NC1=C(C)C(=O)c2c(nc3n2CCC3)C1=O`, COMPARE correlation coefficient 0.7. Against it:
- CC(=O)NC1=C(C)C(=O)c2c(nc3n2CCC3OC(C)=O)C1=O (configuration not stated) — higher, 1
- COCC(=O)C1CCn2c1nc1c2C(=O)C(C)=C(NC(C)=O)C1=O (configuration not stated) — higher, 0.71

System: Cancer cell lines
Experiment: Ratio of the LC50 value to that of imino-APBI-A.
Format: functional

Point of comparison: `CCC(=O)OC1CCn2c1nc1c2C(=O)C(C)=C(NC(C)=O)C1=N` (configuration not stated), Ratio 0.26. Against it:
- CC(=O)NC1=C(C)C(=O)c2c(nc3n2CCC3O)C1=N (configuration not stated) — lower, 0.09
- CC(=O)NC1=C(C)C(=O)c2c(nc3n2CCC3OC(C)=O)C1=N (configuration not stated) — higher, 1
- COCC(=O)C1CCn2c1nc1c2C(=O)C(C)=C(NC(C)=O)C1=N (configuration not stated) — higher, 0.52
- CC(=O)NC1=C(C)C(=O)c2c(nc3n2CCC3OC(=O)c2ccccc2)C1=N (configuration not stated) — higher, 0.58
